In the supplement of paper PMC10307832:

How the values were obtained:
Experiment in all cases: relative viability (nuclei count vs DMSO), 5 days (fraction); higher = more cells survive
BI-D1870 + Crizotinib = compound: CC(C)CCN1c2nc(Nc3cc(F)c(O)c(F)c3)ncc2N(C)C(=O)C1C [BI-D1870] + C[C@@H](Oc1cc(-c2cnn(C3CCNCC3)c2)cnc1N)c1c(Cl)ccc(F)c1Cl [Crizotinib] (partner 1 µM)
In short: (§1)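 Medians of duplicate plates are given as relative viability. That measure is the nuclei count in treated wells divided by the count in vehicle wells. Counts were taken on 4× images of lung cancer cell lines in 1536-well plates, 5 days after pin-tool dosing the day after seeding with one drug alone or a fixed anchor-drug dose plus five library-drug doses (not always all listed) in √10 steps.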

BI-D1870 + Decitabine = compound: CC(C)CCN1c2nc(Nc3cc(F)c(O)c(F)c3)ncc2N(C)C(=O)C1C [BI-D1870] + Nc1ncn([C@H]2C[C@H](O)[C@@H](CO)O2)c(=O)n1 [Decitabine] (partner 2 µM)
In short: as §1

Zebularine + Tozasertib = compound: O=c1ncccn1[C@@H]1O[C@H](CO)[C@@H](O)[C@H]1O [Zebularine] + Cc1cc(Nc2cc(N3CCN(C)CC3)nc(Sc3ccc(NC(=O)C4CC4)cc3)n2)n[nH]1 [Tozasertib] (partner 0.1 µM)
In short: as §1

Zebularine + Vorinostat = compound: O=c1ncccn1[C@@H]1O[C@H](CO)[C@@H](O)[C@H]1O [Zebularine] + O=C(CCCCCCC(=O)Nc1ccccc1)NO [Vorinostat] (partner 1 µM)
In short: as §1

Cell Line	relative viability (BI-D1870 + Crizotinib; first compound 0.04 µM)	relative viability (BI-D1870 + Crizotinib; first compound 0.1265 µM)	relative viability (BI-D1870 + Crizotinib; first compound 0.4 µM)	relative viability (BI-D1870 + Crizotinib; first compound 1.265 µM)	relative viability (BI-D1870 + Crizotinib; first compound 4 µM)	relative viability (BI-D1870 + Decitabine; first compound 0.04 µM)	relative viability (BI-D1870 + Decitabine; first compound 0.1265 µM)	relative viability (BI-D1870 + Decitabine; first compound 0.4 µM)	relative viability (BI-D1870 + Decitabine; first compound 1.265 µM)	relative viability (BI-D1870 + Decitabine; first compound 4 µM)	relative viability (Zebularine + Tozasertib; first compound 1 µM)	relative viability (Zebularine + Tozasertib; first compound 3.162 µM)	relative viability (Zebularine + Tozasertib; first compound 10 µM)	relative viability (Zebularine + Tozasertib; first compound 31.62 µM)	relative viability (Zebularine + Tozasertib; first compound 100 µM)	relative viability (Zebularine + Vorinostat; first compound 1 µM)	relative viability (Zebularine + Vorinostat; first compound 3.162 µM)	relative viability (Zebularine + Vorinostat; first compound 10 µM)	relative viability (Zebularine + Vorinostat; first compound 31.62 µM)	relative viability (Zebularine + Vorinostat; first compound 100 µM)
NCI-H2087	0.918	0.914	1	1.11	0.739	0.259	0.28	0.307	0.342	0.38	0.255	0.338	0.215	0.225	0.155	1.1	0.652	0.285	0.667	0.303
LK-2	0.187	0.233	0.232	0.274	0.264	0.373	0.317	0.379	0.353	0.342	0.179	0.188	0.171	0.178	0.166	0.277	0.315	0.209	0.177	0.28
NCI-H1437	1.04	0.811	0.873	0.794	0.677	0.59	0.53	0.756	0.629	0.56	0.44	0.381	0.254	0.397	0.304	1.02	0.899	0.727	0.911	0.55
COR-L23	0.703	0.639	0.692	0.72	0.544	0.445	0.402	0.508	0.526	0.405	0.216	0.263	0.186	0.181	0.119	0.511	0.475	0.389	0.299	0.174
ABC-1	1.19	0.49	1.12	0.988	0.591	0.885	1.05	1.15	0.942	1.03	0.193	0.196	0.164	0.189	0.148	1.15	1.02	0.701	0.835	0.575
NCI-H522	–	–	–	–	–	0.595	0.762	0.677	0.647	0.661	0.549	0.526	0.527	0.522	0.577	0.797	0.938	0.802	1.01	0.778
NCI-H838	0.902	0.715	0.926	0.949	0.932	0.47	0.483	0.477	0.444	0.523	0.251	0.304	0.239	0.216	0.163	0.712	0.723	0.654	0.859	0.402
